Data as given in patent US20240016882A1, “AUTOPHAGY-INHIBITING PEPTIDE AND ORGANIC ACID SALT THEREOF ADDRESSING ISSUES OF VASCULAR PERMEABILITY” (BIOTEMPT B.V., priority 2020, published 2024).
Like-named read-outs stand apart in the source and are kept apart here. Each block holds one compound with its values, some of them ahead of it. Ends that are not written are not given here. Peptide text beside a SMILES is read from it.

Columns and labels:
[1] = Solubility / aggregation points of AQGV salts in 0.9% NaCl
Description: (§1) At first attempts were made to mix a solution of the free base and an acid in order to achieve a concentrated DMSO solution of the salt and subsequently dilute this in water in order to determine solubility. […] It was decided to determine the solubility of the salts required by dilution of known amount of salts (not soluble) till a clear solution is obtained.

human cells = details: AJ Meijer et al Amino Acids 2015; cited from earlier work
mTOR kinases = mTOR kinases (Homo sapiens, UniProt P42345); details: cited from earlier work
[2] = cited from earlier work
autophagy = details: cited from earlier work
[3] = design: species or system male CD-1 mice; details: mouse, in vivo
Method: The present study, which was conducted by TNO Biosciences, Utrechtseweg, Netherlands, was designed to provide data on the distribution and metabolism of [14C]-AQGV (“AQGV” disclosed as SEQ ID NO: 5) (Ala-Gln-[1-^14C]Gly-Val (“AQGV” disclosed as SEQ ID NO: 5)) in male CD-1 mice following a single intravenous dose of 50 mg/kg. To this end, mice were sacrificed at […], and 6 and 24 hours after administration of radiolabeled AQGV (SEQ ID NO: 5), counts in various tissues were determined, and the radioactivity present in the urine and plasma were analyzed by HPLC.

[4] = Description: as §1
p38 MAPK = experiment: Phosphorylation status after fMLP challenge of hPBMCs: p38 MAPK; type: cell-based, human; details: 1 μM fMLP
Method: (§2) Human-derived peripheral blood monocytes as a prototype cell-system for FPR-expression were isolated from healthy volunteers (hPBMCs) according to routine procedures^1 at University Medical Centre Groningen, The Netherlands. Subsequently PMBC were incubated with the Biotempt-supplied peptide AQGV (SEQ ID NO: 5) (which was freshly prepared as a 20 […] stock solution in bidistilled water) or treated with the vehicle for 10 min. Then hPMBCs were challenged with 1 μM fMLP for various time periods (see results FIGS. 4a, b, 4c and 4d). Each stimulus 0, 30, 60, 300 and 600 seconds at two concentrations AQGV (SEQ ID NO: 5), 20 ng/ml and 50 ng/ml and in six-fold. Following stimulation with fMLP for the indicated time periods, the phosphorylation status of p38MAPK, JNK, PKB, P42/p44MAPK/ERK1,2 and STAT3 was analysed 3. STAT3 was undetectable, JNK and P42/p44MAPK/ERK1,2.

PKB (also known as AKT) = experiment: Phosphorylation status after fMLP challenge of hPBMCs: PKB (AKT); type: cell-based, human; details: 1 μM fMLP
Method: as §2

[5] = Previous first in human study of AQGV; type: in vivo; details: up to i.v. doses of 30 mg/kg three times a day (90 mg/kg daily) for three days
[6] = Dose-escalating phase I studies: pharmacokinetics, safety and tolerability of AQGV; type: in vivo, humans (healthy subjects)
Method: Three double-blind, randomized, placebo-controlled, dose-escalating phase I studies in healthy subjects were conducted to evaluate safety, tolerability and pharmacokinetics of AQGV (SEQ ID NO: 5). In the first single dose study, 32 subjects were assigned to four single dosage groups (1, 3, 10 or 30 mg/kg). In the second multiple dosage study, 24 subjects were assigned to three dosing groups (10, 20 or 30 mg/kg) and received study medication thrice a day for three days. In the third continuous dosing study, 24 subjects were assigned to three dosing groups (15, 30 or 90 mg/kg/hour) to receive study medication by 2-hour continuous iv infusion. Pharmacokinetics (PK), safety and tolerability assessments were performed up to 14-days.

P42/p44MAPK/ERK1,2 = experiment: Phosphorylation status after fMLP challenge of hPBMCs: P42/p44MAPK/ERK1,2; type: cell-based, human; details: hPBMC, 1 μM fMLP, 0-600 seconds
Method: as §2

JNK = experiment: Phosphorylation status after fMLP challenge of hPBMCs: JNK; type: cell-based, human; details: hPBMC, 1 μM fMLP, 0-600 seconds
Method: as §2

solubility compared to AQGV-Ac ([1]; 0.9% NaCl): Higher solubility
appearance / behaviour of the concentrated solution ([1]; 0.9% NaCl, listed as citric acid): remains clear but got very thick/viscous
total amount dissolved ([1]; in 0.5 mL 0.9% NaCl): 2.75 mmol
Compound: CC(C)[C@H](NC(=O)CNC(=O)[C@H](CCC(N)=O)NC(=O)[C@H](C)N)C(=O)O [AQGV-citrate] (H-AQGV-OH)
appearance / behaviour of the concentrated solution ([1]; 0.9% NaCl, listed as Citric acid): does not crystallize or aggregate but tend to form a highly viscous solution

Compound: O=C(O)[C@@H]1CCCN1 [L-Proline]
autophagic effects on human cells (human cells): most prominent autophagic effects
Literature based activity mTOR kinases (mTOR kinases): activate

Compound: CC(C)[C@H](N)C(=O)O [L-Valine]
Literature based activity mTOR kinases (mTOR kinases): activate

Compound: VRLIVAVRIWRR-NH2 [IDR-1018]
aggregation ([2]; prepared in sodium acetate): did not induce any appreciable aggregation
aggregation ([2]; solutions containing large polyatomic anions: phosphate, benzoate, nitrate, citrate): suffer strongly from aggregation
aggregation ([2]; solutions containing sulfate, bicarbonate, chloride, iodide anions): comparatively small amount of aggregation
ion concentration at which aggregation was observed ([2]; sulfate, bicarbonate, chloride, iodide anions): above 200 mM

appearance / behaviour of the concentrated solution ([1]; 0.9% NaCl): no clear solution could be obtained
Compound: Nc1ncnc2c1ncn2[C@@H]1O[C@H](COP(=O)(O)O)[C@@H](O)[C@H]1O [adenosine-monophosphate]

Compound: N[C@@H](Cc1c[nH]cn1)C(=O)O [L-Histidine]
Literature based activity mTOR kinases (mTOR kinases): down

Compound: CC[C@H](C)[C@H](N)C(=O)O [L-Isoleucine]
Literature based activity autophagy (autophagy): DOWN
Literature based activity mTOR kinases (mTOR kinases): activate

administered radioactivity exhaled as volatiles [3]: About 50%
time to full hydrolysis of the peptide after administration [3]: 15 min
Compound: Ala-Gln-[1-^14C]Gly-Val [[14C]-AQGV]

Compound: C[C@@H](O)[C@H](N)C(=O)O [L-Threonine]
Literature based activity mTOR kinases (mTOR kinases): down

solubility in DMSO [4]: did not dissolve in DMSO at all
appearance / behaviour of the concentrated solution ([1]; 0.9% NaCl): no clear solution could be obtained
Compound: Nc1ncnc2c1ncn2[C@@H]1O[C@H](CO)[C@@H](O)[C@H]1O [adenosine]

Compound: NCCCC[C@H](N)C(=O)O [L-Lysine]
Literature based activity mTOR kinases (mTOR kinases): down

Compound: CSCC[C@H](NC=O)C(=O)N[C@@H](CC(C)C)C(=O)N[C@@H](Cc1ccccc1)C(=O)O [fMLP, N-formyl-methionyl-leucyl-phenylalanine, reference compound]
changes in phosphorylation status of p38 MAPK caused by FPR-activation (p38 MAPK; p<0.05 from 60 to 600 sec): rapidly induced and significant
changes in phosphorylation status of PKB caused by FPR-activation (PKB (also known as AKT); p<0.05 at 600 sec): rapidly induced and significant

Compound: CC(C)C[C@H](N)C(=O)O [L-Leucine]
Literature based activity autophagy (autophagy): DOWN
autophagic effects on human cells (human cells): most prominent autophagic effects
Literature based activity mTOR kinases (mTOR kinases): activate

Compound: CC(C)[C@H](NC(=O)CNC(=O)[C@H](CCC(N)=O)NC(=O)[C@H](C)N)C(=O)O [AQGV] (H-AQGV-OH)
tolerability [5]: well tolerated
clearance ([6]; human, in vivo, iv, range over phase I studies, read-out: clearance rate): 433 to 1020 mL/min/kg
half-life ([6]; human, in vivo, iv, range over phase I studies, read-out: estimated half life time): 2 to 22 min
Vd ([6]; human, in vivo, iv, range over phase I studies, read-out: volume of distribution): 4 to 33 L/kg
more than proportional increases in exposure to the highest dosages ([6]; i.v., range over phase I studies): 126-137%
tolerability ([6]; i.v., single, multiple and continuous dosing up to 90 mg/kg/hour): well tolerated
serious adverse events ([6]; phase I studies): no serious adverse events
subjects reporting AEs with a possible relationship to study drug ([6]; subjects receiving AQGV): 3 subjects
effect on P42/p44MAPK/ERK1,2 phosphorylation status (P42/p44MAPK/ERK1,2): not affected throughout
effect on JNK phosphorylation status (JNK): not affected throughout
effect on p38 MAPK kinase activated changes (p38 MAPK; hPBMC): reduces p38 MAPK kinase activated changes
time after FPR-stimulation at which effects on p38 MAPK are detected (p38 MAPK; hPBMC, 20 and 50 ng/ml AQGV): 30 s
duration of effects on p38 signalling (p38 MAPK; hPBMC, 600 seconds tested): 600 s
effect on PI3K/AKT/mTOR activated induced changes (PKB (also known as AKT); hPBMC): reduces PI3K/AKT/mTOR activated induced changes
duration of effects on PKB-mediated signalling (PKB (also known as AKT); hPBMC, 600 seconds tested): 600 s
time after FPR-stimulation at which effects on PKB(AKT) follow (PKB (also known as AKT); hPBMC, bi-phasic pattern): 300 s

Compound: N=C(N)NCCC[C@H](N)C(=O)O [L-Arginine]
Literature based activity autophagy (autophagy): DOWN
Literature based activity mTOR kinases (mTOR kinases): activate

Compound: NC(=O)CC[C@H](N)C(=O)O [L-Glutamine]
Literature based activity autophagy (autophagy): DOWN
autophagic effects on human cells (human cells): most prominent autophagic effects
Literature based activity mTOR kinases (mTOR kinases): activate

Compound: NCC(=O)O [L-Glycine]
Literature based activity autophagy (autophagy): DOWN

Compound: C[C@H](N)C(=O)O [L-Alanine]
Literature based activity autophagy (autophagy): DOWN
autophagic effects on human cells (human cells): most prominent autophagic effects

Compound: CSCC[C@H](N)C(=O)O [L-Methionine]
Literature based activity mTOR kinases (mTOR kinases): partial
